One assay addresses DNMT1 (Homo sapiens, UniProt P26358). The assay is described as follows: DNMT1 biochemical activity, breaklight assay and/or SPA assay.
Another assay deals with human DNMT3a/3l (Homo sapiens (Human), UniProt Q9Y6K1). The assay is described as follows: DNMT3a/3l breaklight assay. It counts as biochemical. How it is done:
DNMT3a/3l Breakliqht Assay
DNMT3a/3l breaklight in vitro assays were conducted in a total volume of 50 μl in a standard 384 well format, using black non-binding surface microplates (Corning #3575). […] Negative control wells used 5 μl of DNMT3a/3l and 5 μl of oligonucleotide but also included 200 μM SAH. All reagents were made up in 1× assay buffer (20 mM Tris pH 7.4, 100 mM NaCl, 1.5 mM EDTA, 0.1 mM MgCl2, 1 mM CHAPS and 1 mM DTT). The reaction was incubated at 37° C. for 90 min and then stopped with the addition of 40 μl detection reagent. Detection reagent, made up in 1× Gla assay buffer (20 mM Tris pH 8.0, 80 mM NaCl, 0.75 mM MgCl2, 0.01% Triton X100 and 1 mM DTT) has a final concentration of 200 μM SAH (Sigma #A9384) and 0.0008 units/μl Gla1 restriction endonuclease (Sibenzyme #E494). Following addition of the detection reagent the plate was incubated in the dark at room temperature for 5 hr. Fluorescence intensity was then measured on the PHERAstar FS (BMG Labtech) at Ex 485 nm and Em 520 nm, with a gain of 400 and an integration time of 100 ms.

The target in the next assay is DNMT3B (Homo sapiens (Human), UniProt Q9UBC3). The assay is described as follows: DNMT3B breaklight assay. It counts as biochemical.
Assay [1] concerns erythroid progenitor cells (EPCs). The assay is described as follows: Fetal hemoglobin (HbF) ELISA in day 7 erythroid progenitor cells.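 Also: for fetal hemoglobin induction normalized to vehicle-treated cells.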 The class given is cell-based, human. The conditions noted are these: Homo sapiens, Erythroid progenitor cell, HbF ELISA, day 7 EPCs, 5 days; read-out: EPC ELISA (pEC50 category) (converted). The method in brief:
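HbF induction was read by anti-HbF sandwich ELISA (HRP/TMB, OD450) on lysates and normalized to vehicle-treated cells. Cells were day 7 erythroid progenitors derived from human bone marrow CD34+ cells, seeded at 1,000/well with 3 U/mL rhEPO. Compound was given for 5 days at 37 °C at final concentrations […].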
(ELISA stands for enzyme-linked immunosorbent assay.)

[2] abbreviates: binned activity in either the breaklight or the SPA assay, read-out: DNMT1 BioChemical (pIC50 category) (converted).
Setting [3] is: read-out: DNMT3A Breaklight IC50.
Setting [4] is: read-out: DNMT3B Breaklight IC50.
Where [5] appears, read: binned activity in either the breaklight or the SPA assay.
[6] abbreviates: repeated experimental runs, read-out: average IC50, DNMT3A breaklight assay.
Where [7] appears, read: repeated experimental runs, read-out: average IC50, DNMT3B breaklight assay.
[8] abbreviates: breaklight assay and/or SPA assay, repeated experimental runs, read-out: average pIC50 against DNMT1 (converted).

Read-outs that look alike come from different tables or passages of the source.

Chain of human DNMT3a/3l (Q9Y6K1 whole entry, looked up): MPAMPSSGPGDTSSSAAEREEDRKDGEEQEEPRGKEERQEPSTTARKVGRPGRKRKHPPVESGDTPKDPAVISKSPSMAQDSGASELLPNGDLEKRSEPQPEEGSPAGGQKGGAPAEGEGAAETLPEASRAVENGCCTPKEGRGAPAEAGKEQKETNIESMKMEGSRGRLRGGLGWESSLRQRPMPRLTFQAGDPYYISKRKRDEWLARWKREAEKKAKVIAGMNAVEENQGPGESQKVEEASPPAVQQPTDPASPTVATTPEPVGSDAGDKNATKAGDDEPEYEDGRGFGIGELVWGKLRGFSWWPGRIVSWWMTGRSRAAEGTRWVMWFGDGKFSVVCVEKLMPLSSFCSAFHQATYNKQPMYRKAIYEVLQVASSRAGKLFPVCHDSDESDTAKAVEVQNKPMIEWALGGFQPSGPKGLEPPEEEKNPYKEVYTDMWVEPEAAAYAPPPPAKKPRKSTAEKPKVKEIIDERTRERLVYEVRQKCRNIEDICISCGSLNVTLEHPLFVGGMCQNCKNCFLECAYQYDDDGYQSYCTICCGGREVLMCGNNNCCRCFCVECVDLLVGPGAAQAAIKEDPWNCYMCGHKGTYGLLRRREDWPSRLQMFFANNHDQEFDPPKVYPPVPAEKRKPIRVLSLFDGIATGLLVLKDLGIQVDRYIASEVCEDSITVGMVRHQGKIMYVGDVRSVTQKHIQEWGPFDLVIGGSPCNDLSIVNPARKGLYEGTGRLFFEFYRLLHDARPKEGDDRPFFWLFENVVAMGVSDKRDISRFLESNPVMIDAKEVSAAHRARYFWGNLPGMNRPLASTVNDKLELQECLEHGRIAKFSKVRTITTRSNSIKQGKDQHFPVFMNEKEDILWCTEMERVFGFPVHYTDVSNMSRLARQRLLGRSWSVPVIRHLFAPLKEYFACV
Chain of human DNMT3a/3l (Q9UJW3 whole entry partner, looked up): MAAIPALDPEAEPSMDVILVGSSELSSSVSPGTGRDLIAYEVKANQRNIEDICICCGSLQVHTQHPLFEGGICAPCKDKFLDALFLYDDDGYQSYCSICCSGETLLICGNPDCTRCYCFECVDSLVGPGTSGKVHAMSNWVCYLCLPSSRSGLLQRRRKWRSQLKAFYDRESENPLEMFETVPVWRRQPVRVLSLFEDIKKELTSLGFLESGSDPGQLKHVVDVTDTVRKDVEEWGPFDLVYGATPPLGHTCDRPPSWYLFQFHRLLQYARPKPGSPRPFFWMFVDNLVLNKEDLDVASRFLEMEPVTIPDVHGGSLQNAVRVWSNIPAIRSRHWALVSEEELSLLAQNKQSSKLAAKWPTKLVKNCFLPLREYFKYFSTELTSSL
Chain of DNMT1 (P26358 whole entry, looked up): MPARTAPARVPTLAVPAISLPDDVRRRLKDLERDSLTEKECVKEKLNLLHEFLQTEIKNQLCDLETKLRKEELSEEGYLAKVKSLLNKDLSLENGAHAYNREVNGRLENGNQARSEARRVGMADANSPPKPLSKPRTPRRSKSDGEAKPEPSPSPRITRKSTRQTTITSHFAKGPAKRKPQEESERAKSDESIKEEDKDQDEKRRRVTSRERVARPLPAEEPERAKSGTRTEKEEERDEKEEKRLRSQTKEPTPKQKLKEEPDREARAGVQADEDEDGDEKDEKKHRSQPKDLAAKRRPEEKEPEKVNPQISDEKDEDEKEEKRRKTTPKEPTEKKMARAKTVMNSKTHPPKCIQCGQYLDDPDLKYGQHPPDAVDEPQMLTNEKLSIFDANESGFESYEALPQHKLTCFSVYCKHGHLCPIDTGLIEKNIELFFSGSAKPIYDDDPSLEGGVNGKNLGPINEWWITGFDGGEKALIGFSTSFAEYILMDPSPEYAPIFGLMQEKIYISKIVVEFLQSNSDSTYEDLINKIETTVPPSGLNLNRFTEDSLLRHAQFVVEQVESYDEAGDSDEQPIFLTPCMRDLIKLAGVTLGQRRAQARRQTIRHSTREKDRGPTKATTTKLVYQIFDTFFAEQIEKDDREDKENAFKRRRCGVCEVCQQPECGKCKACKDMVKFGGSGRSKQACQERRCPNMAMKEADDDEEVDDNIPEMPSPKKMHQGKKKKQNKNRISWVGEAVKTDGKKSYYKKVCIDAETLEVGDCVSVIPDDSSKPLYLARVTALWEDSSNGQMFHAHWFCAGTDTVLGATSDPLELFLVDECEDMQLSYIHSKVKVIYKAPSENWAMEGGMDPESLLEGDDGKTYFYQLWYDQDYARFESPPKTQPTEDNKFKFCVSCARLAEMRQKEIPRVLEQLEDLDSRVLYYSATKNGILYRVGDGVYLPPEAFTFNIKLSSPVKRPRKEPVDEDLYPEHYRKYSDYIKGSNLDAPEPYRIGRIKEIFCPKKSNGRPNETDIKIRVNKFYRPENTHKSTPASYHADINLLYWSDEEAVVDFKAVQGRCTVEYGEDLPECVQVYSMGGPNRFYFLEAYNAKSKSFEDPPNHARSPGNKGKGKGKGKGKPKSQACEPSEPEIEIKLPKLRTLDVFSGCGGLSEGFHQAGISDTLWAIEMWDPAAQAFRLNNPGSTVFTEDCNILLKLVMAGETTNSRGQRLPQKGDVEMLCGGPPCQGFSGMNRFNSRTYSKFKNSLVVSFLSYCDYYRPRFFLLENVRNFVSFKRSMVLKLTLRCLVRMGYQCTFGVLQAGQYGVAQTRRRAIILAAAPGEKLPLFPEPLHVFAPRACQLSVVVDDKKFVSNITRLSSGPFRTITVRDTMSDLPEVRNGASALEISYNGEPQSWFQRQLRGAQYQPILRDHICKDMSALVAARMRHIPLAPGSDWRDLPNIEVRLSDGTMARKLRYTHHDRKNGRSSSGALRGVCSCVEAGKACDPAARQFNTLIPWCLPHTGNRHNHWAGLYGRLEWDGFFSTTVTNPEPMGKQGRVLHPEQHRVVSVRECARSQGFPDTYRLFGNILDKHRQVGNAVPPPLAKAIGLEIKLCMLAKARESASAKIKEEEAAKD

Regarding `CCc1c(C#N)c(N)nc(S[C@@H](C(N)=O)c2ccccc2)c1C#N` [Example 2, (R)-[(6-amino-3,5-dicyano-4-ethylpyridin-2-yl)sulfanyl]-2-phenylacetamide], the IC50 at DNMT1 (setting [2]) is 0.316 to 1 µM; at human DNMT3a/3l (setting [3]), greater than 500 µM; on DNMT3B (setting [4]) it was greater than 500 µM. Also, the EC50 in assay [1] was greater than 31.6 µM.

With `CCc1c(C#N)c(SC(C(N)=O)c2ccccc2)nc(N2CCC(C)(N)CC2)c1C#N` (stereo not drawn) [Example 136, 2-((6-(4-Amino-4-methylpiperidin-1-yl)-3,5-dicyano-4-ethylpyridin-2-yl)thio)-2-phenylacetamide], the “DNMT1 BioChemical (pIC50 category)” value at DNMT1 (setting [5]) was “D (Category D: ≥6.5)”. Also, at DNMT1 (breaklight assay and/or SPA assay, repeated experimental runs), the “average pIC50 against DNMT1” value is on record as greater than 6.5. Further, the IC50 at human DNMT3a/3l (setting [3]) is greater than 500 µM; at DNMT3B (setting [4]) it was 379 µM. The EC50 in assay [1] is less than 0.316 µM.

Regarding `CCc1c(C#N)c(SC(C(N)=O)c2ccccc2)nc(N2CCCN(CC(C)O)CC2)c1C#N` (stereo not drawn) [Example 107, 2-((3,5-dicyano-4-ethyl-6-(4-(2-hydroxypropyl)-1,4-diazepan-1-yl)pyridin-2-yl)thio)-2-phenylacetamide], the “DNMT1 BioChemical (pIC50 category)” value at DNMT1 (setting [5]) is “D (Category D: ≥6.5)”. The IC50 on human DNMT3a/3l (setting [3]) and on DNMT3B (setting [4]) was greater than 500 µM in each case. Besides, the EC50 in assay [1] was less than 0.316 µM.

For `CCc1c(C#N)c(SC(C(N)=O)c2ccccc2)nc(N2CC[C@H](O)C2)c1C#N` (stereo partly drawn) [Example 49, 2-((3,5-Dicyano-4-ethyl-6-((S)-3-hydroxypyrrolidin-1-yl)pyridin-2-yl)thio)-2-phenylacetamide], the “DNMT1 BioChemical (pIC50 category)” value at DNMT1 (setting [5]) is recorded as “D (Category D: ≥6.5)”. Moreover, the IC50 on human DNMT3a/3l (setting [3]) and at DNMT3B (setting [4]) was greater than 500 µM in each case. For the same compound, in assay [1], the EC50 is 0.316 to 1 µM.

For the compound `CCc1c(C#N)c(NC)nc(SC(C(N)=O)c2ccccc2)c1C#N` (stereo not drawn) [Example 52, 2-((3,5-Dicyano-4-ethyl-6-(methylamino)pyridin-2-yl)thio)-2-phenylacetamide], the IC50 at DNMT1 (setting [2]) was 0.316 to 1 µM; on human DNMT3a/3l (setting [3]), greater than 500 µM; at human DNMT3a/3l (setting [6]), greater than 500 µM; on DNMT3B (setting [4]) it was greater than 500 µM; at DNMT3B (setting [7]), greater than 500 µM. Further, the EC50 in assay [1] is 1 to 31.6 µM.

For the compound `CCc1c(C#N)c(SC(C(N)=O)c2ccccc2)nc(N(C)CCOC)c1C#N` (stereo not drawn) [Example 53, 2-((3,5-Dicyano-4-ethyl-6-((2-methoxyethyl)(methyl)amino)pyridin-2-yl)thio)-2-phenylacetamide], the figures for the IC50 on DNMT1 (setting [2]), on human DNMT3a/3l (setting [3]) and at DNMT3B (setting [4]) were 1 to 31.6 µM, greater than 500 µM and greater than 500 µM, respectively. In addition, the EC50 in assay [1] is 1 to 31.6 µM.

As to `CCc1c(C#N)c(SC(C(N)=O)c2ccccc2)nc(N2CCNC(=O)C2)c1C#N` (stereo not drawn) [Example 50, 2-((3,5-Dicyano-4-ethyl-6-(3-oxopiperazin-1-yl)pyridin-2-yl)thio)-2-phenylacetamide], the IC50 was 0.316 to 1 µM at DNMT1 (setting [2]), greater than 500 µM on human DNMT3a/3l (setting [3]) and greater than 500 µM at DNMT3B (setting [4]). Further, in assay [1], the EC50 was less than 0.316 µM.

In the case of `CCc1c(C#N)c(SC(C(N)=O)c2ccccc2)nc(N2CCN(C(C)=O)CC2)c1C#N` (stereo not drawn) [Example 126, 2-((6-(4-Acetylpiperazin-1-yl)-3,5-dicyano-4-ethylpyridin-2-yl)thio)-2-phenylacetamide], the IC50 on DNMT1 (setting [2]) was 0.316 to 1 µM; at DNMT1 (setting [8]), 0.316 to 1 µM; at human DNMT3a/3l (setting [3]), greater than 500 µM; at DNMT3B (setting [4]), greater than 500 µM. Further, in assay [1], the EC50 is less than 0.316 µM.

Consider `CN(C)c1nc(SC(C(N)=O)c2ccccc2)c(C#N)c(C2CC2)c1C#N` (stereo not drawn) [Example 127, 2-((3,5-Dicyano-4-cyclopropyl-6-(dimethylamino)pyridin-2-yl)thio)-2-phenylacetamide], for which, at DNMT1 (setting [5]), the “DNMT1 BioChemical (pIC50 category)” value is “D (Category D: ≥6.5)”. The IC50 at human DNMT3a/3l (setting [3]) and on DNMT3B (setting [4]) was greater than 500 µM throughout. For the same compound, the EC50 in assay [1] is 0.316 to 1 µM.

In the case of `CCc1c(C#N)c(N)nc(SC(C(N)=O)c2ccccc2)c1C#N` (stereo not drawn) [Example 1, 2-[(6-amino-3,5-dicyano-4-ethylpyridin-2-yl)sulfanyl]-2-phenylacetamide], the IC50 on DNMT1 (setting [2]) is 1 to 31.6 µM; on human DNMT3a/3l (setting [3]), 417 µM; on DNMT3B (setting [4]), greater than 500 µM. In assay [1], the EC50 is greater than 31.6 µM.

For `CCc1c(C#N)c(SC(C(N)=O)c2ccccc2)nc(N2CCN(CCO)CC2)c1C#N` (stereo not drawn) [Example 129, 2-((3,5-Dicyano-4-ethyl-6-(4-(2-hydroxyethyl)piperazin-1-yl)pyridin-2-yl)thio)-2-phenylacetamide], the IC50 at DNMT1 (setting [2]) was 0.316 to 1 µM; at DNMT1 (setting [8]), no less than 1 µM; on human DNMT3a/3l (setting [3]) it was greater than 500 µM; at DNMT3B (setting [4]) it was greater than 500 µM. In assay [1], the EC50 is 1 to 31.6 µM.

As for `CCc1c(C#N)c(SC(C(N)=O)c2ccccc2)nc(N2CCCN(CC)CC2)c1C#N` (stereo not drawn) [Example 7, 2-{[3,5-dicyano-4-ethyl-6-(4-ethyl-1,4-diazepan-1-yl)pyridin-2-yl]sulfanyl}-2-phenylacetamide], the “DNMT1 BioChemical (pIC50 category)” value on DNMT1 (setting [5]) is given as “D (Category D: ≥6.5)”. For the same compound, the IC50 at human DNMT3a/3l (setting [3]), at human DNMT3a/3l (setting [6]), on DNMT3B (setting [4]) and at DNMT3B (setting [7]) was greater than 500 µM in each case. Moreover, the EC50 in assay [1] was less than 0.316 µM.

On to `N#Cc1c(N)nc(SC(C(N)=O)c2ccccc2)c(C#N)c1C1CC1` (stereo not drawn) [Example 51, 2-[(6-amino-3,5-dicyano-4-cyclopropyl-2-pyridyl)sulfanyl]-2-phenyl-acetamide], for which the results for the IC50 at DNMT1 (setting [2]), on human DNMT3a/3l (setting [3]) and on DNMT3B (setting [4]) were 0.316 to 1 µM, greater than 500 µM and greater than 500 µM, respectively. Besides, in assay [1], the EC50 was greater than 31.6 µM.

`CCc1c(C#N)c(SC(C(N)=O)c2ccccc2)nc(N2CCC3(CCCN(C)C3)CC2)c1C#N` (stereo not drawn) [Example 118, 2-((3,5-Dicyano-4-ethyl-6-(2-methyl-2,9-diazaspiro[5.5]undecan-9-yl)pyridin-2-yl)thio)-2-phenylacetamide]: the “DNMT1 BioChemical (pIC50 category)” value at DNMT1 (setting [5]) is on record as “D (Category D: ≥6.5)”. Further, the IC50 at human DNMT3a/3l (setting [3]) was greater than 500 µM; on DNMT3B (setting [4]), 124 µM. Besides, in assay [1], the EC50 was less than 0.316 µM.

As for `CCc1c(C#N)c(SC(C(N)=O)c2ccccc2)nc(N2CCC(=O)CC2)c1C#N` (stereo not drawn) [Example 59, 2-((3,5-dicyano-4-ethyl-6-(4-oxopiperidin-1-yl)pyridin-2-yl)thio)-2-phenylacetamide], the IC50 at DNMT1 (setting [2]) was 0.316 to 1 µM; on human DNMT3a/3l (setting [3]), greater than 500 µM; at DNMT3B (setting [4]), greater than 500 µM. For the same compound, in assay [1], the EC50 is 0.316 to 1 µM.

`CCc1c(C#N)c(SC(C(N)=O)c2ccc(Cl)cc2)nc(N(C)C)c1C#N` (stereo not drawn) [Example 128, 2-(4-Chlorophenyl)-2-((3,5-dicyano-6-(dimethylamino)-4-ethylpyridin-2-yl)thio)acetamide]: the IC50 on DNMT1 (setting [2]) is 0.316 to 1 µM; at human DNMT3a/3l (setting [3]), greater than 500 µM; on DNMT3B (setting [4]), greater than 500 µM. In assay [1], the EC50 is 0.316 to 1 µM.

As for `CCCN1CCCN(c2nc(SC(C(N)=O)c3ccccc3)c(C#N)c(CC)c2C#N)CC1` (stereo not drawn) [Example 6, 2-((3,5-dicyano-4-ethyl-6-(4-propyl-1,4-diazepan-1-yl)pyridin-2-yl)thio)-2-phenylacetamide], the “DNMT1 BioChemical (pIC50 category)” value at DNMT1 (setting [5]) was “D (Category D: ≥6.5)”. Besides, the IC50 on human DNMT3a/3l (setting [3]), at human DNMT3a/3l (setting [6]), on DNMT3B (setting [4]) and at DNMT3B (setting [7]) was greater than 500 µM throughout. For the same compound, the EC50 in assay [1] is less than 0.316 µM.

For `CCc1c(C#N)c(SC(C(N)=O)c2ccccc2)nc(N2CCCN(CCOC)CC2)c1C#N` (stereo not drawn) [Example 106, 2-({3,5-Dicyano-4-ethyl-6-[4-(2-methoxyethyl)-1,4-diazepan-1-yl]pyridin-2-yl}sulfanyl)-2-phenylacetamide], at DNMT1 (setting [5]), the “DNMT1 BioChemical (pIC50 category)” value was “D (Category D: ≥6.5)”. For the same compound, the IC50 on human DNMT3a/3l (setting [3]) and at DNMT3B (setting [4]) was greater than 500 µM in each case. In addition, the EC50 in assay [1] was less than 0.316 µM.

Values taken from patent publication US10975056B2 (GlaxoSmithKline Intellectual Property Development Limited, priority 2016, dated 2021).
